≈ marks a conversion by molar mass, not a printed value.
Tests used:
[1] = Lipophilicity, logD of compound at pH 7.4; format: physicochemical; conditions: buffer
[2] = Oral bioavailability in mouse at 1 mg/kg or 0.5 mg/kg, iv; format: ADME, organism-based; conditions: in vivo
[3] = Volume of distribution at steady state in mouse; format: ADME, organism-based; conditions: in vivo, read-out: Vdss
[4] = Solubility of the compound in aqueous phosphate buffer at pH 7.4 incubated for 24 hrs; format: physicochemical
[5] = Apparent permeability of compound across apical to basolateral in human Caco-2 cells at 10 uM; format: ADME, cell-based
[6] = Oral bioavailability in mouse at 30 mg/kg; format: ADME, organism-based; conditions: in vivo
[7] = AUC (0 to t) in mouse plasma at 30 mg/kg, po; format: ADME, organism-based; parameters: dose 30 mg/kg, route po
[8] = AUC (0 to t) in mouse plasma at 1 mg/kg, po; format: ADME, organism-based; parameters: dose 1 mg/kg, route po

SMILES | logD [1] | Vd [3] | Papp A→B at 10 µM [5] | also measured
CCNc1nc(N)nc2nc(-c3ccc[nH]c3=O)ccc12 | 0.8 |  |  | 
CCNc1nc(N)nc2cc(-n3cccn3)ccc12 | 1.8 |  |  | 
CC1(Nc2nc(N)nc3cc(-c4cc[nH]n4)ccc23)CC1 |  | 4.7 L/kg | 9 ×10⁻⁶ cm/s | bioavailability [2]: 25%; solubility at 24 h [4]: > 1000 µM
CCNc1nc(N)nc2cc(-n3cccn3)cnc12 | 2.1 |  |  | 
CCNc1nc(N)nc2nc(-c3cc[nH]n3)ccc12 | 1.4 |  |  | 
Nc1cc(NCCn2cccn2)c2ccccc2n1 | 0.5 |  |  | 
CCN(Cc1nc2c(N)nc3cc(-c4cc[nH]n4)ccc3c2[nH]1)C(C)=O [BMS-986299] | 1.8 | 0.8 L/kg | 0.6 ×10⁻⁶ cm/s | 
c1cnn(CCNc2ccnc3cc(-n4cccn4)ccc23)c1 | 1.8 |  |  | 
CCNc1nc(N)nc2nc(-n3cccn3)ccc12 | 2 |  |  | 
Nc1nc(NC2CC2)c2ccc(-c3cc[nH]n3)nc2n1 |  | 13 L/kg | 3.7 ×10⁻⁶ cm/s | bioavailability [2]: 7.5%; solubility at 24 h [4]: > 1000 µM
CC1(Nc2nc(N)nc3nc(-c4cc[nH]n4)ccc23)CC1 |  | 7.8 L/kg | 4.2 ×10⁻⁶ cm/s | bioavailability [2]: 56%; bioavailability [6]: 70%; solubility at 24 h [4]: 910 µM (≈ 256 µg/mL); AUC(0-t) [7]: 7.5 µM·h; AUC(0-t) [8]: 0.2 µM·h
CCNc1nc(N)nc2cc(-c3cc[nH]n3)ccc12 | 1.8 |  |  | 
Nc1nc(NCCn2cccn2)c2ccc(-c3cc[nH]n3)nc2n1 | 1.4 |  |  | 
Nc1cc(NCCn2cccn2)c2ccc(-n3cccn3)cc2n1 | 1.7 | 3.1 L/kg | 2.3 ×10⁻⁶ cm/s | bioavailability [2]: 1.1%
CCNc1cc(N)nc2cc(-n3cccn3)ccc12 | 1.5 |  |  | 

Source: ChEMBL document CHEMBL5390234 (Bioorg Med Chem Lett, 2023)
